This note sets out measurements from ChEMBL document CHEMBL5291721, “A preclinical secondary pharmacology resource illuminates target-adverse drug reaction associations of marketed drugs” (Nat Commun, 2023).

Among the targets are Vasopressin V1a receptor (Homo sapiens, UniProt P37288); D(3) dopamine receptor (Homo sapiens, UniProt P35462); Melanocortin receptor 4 (Homo sapiens, UniProt P32245).
The next test has as its target Cannabinoid receptor 1 (Homo sapiens, UniProt P21554). In kind it is functional, cell-based.
Test [1] addresses Voltage-dependent L-type calcium channel subunit alpha-1C (Rattus norvegicus, UniProt P22002). In kind it is functional.
Test [2] has as its target T1, Alpha-2A adrenergic receptor (Homo sapiens, UniProt P08913).
T1 sequence (P08913 whole entry): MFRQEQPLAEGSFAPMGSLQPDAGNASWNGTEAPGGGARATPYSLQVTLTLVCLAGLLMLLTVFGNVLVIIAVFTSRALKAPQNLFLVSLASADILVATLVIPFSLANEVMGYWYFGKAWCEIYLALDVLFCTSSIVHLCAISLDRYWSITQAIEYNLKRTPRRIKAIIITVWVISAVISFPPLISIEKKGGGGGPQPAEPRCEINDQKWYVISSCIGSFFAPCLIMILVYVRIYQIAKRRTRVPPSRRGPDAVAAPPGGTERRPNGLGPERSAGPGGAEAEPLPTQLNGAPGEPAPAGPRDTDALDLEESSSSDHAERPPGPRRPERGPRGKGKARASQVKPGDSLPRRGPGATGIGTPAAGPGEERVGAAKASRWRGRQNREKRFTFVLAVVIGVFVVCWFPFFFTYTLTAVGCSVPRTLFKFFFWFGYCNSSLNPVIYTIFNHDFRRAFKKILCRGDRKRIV
In kind it is functional, cell-based.

Test [3] addresses T2, 5-hydroxytryptamine receptor 3A (Homo sapiens, UniProt P46098).
T2 sequence (P46098 whole entry): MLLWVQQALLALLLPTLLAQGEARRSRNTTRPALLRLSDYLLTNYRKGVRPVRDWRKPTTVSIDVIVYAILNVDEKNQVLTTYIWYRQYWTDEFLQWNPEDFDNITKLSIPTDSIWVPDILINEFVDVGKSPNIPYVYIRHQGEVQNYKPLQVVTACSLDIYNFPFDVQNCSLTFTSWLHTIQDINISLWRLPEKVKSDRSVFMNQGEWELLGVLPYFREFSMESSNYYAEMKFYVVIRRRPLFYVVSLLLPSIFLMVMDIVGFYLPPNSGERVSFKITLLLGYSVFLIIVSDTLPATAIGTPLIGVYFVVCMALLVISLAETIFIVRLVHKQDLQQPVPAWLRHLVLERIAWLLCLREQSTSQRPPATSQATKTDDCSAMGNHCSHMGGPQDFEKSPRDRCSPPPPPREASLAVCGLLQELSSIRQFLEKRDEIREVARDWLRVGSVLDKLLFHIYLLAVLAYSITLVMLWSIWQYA
In kind it is functional.

In another test the target is D(1A) dopamine receptor (Homo sapiens, UniProt P21728). Type of test: functional, cell-based.
In test [4] the target is Beta-2 adrenergic receptor (Homo sapiens, UniProt P07550).
The target in test [5] is T3, Gamma-aminobutyric acid receptor subunit alpha-1 (Rattus norvegicus, UniProt P62813).
Test [6] concerns the target Growth hormone secretagogue receptor type 1 (Homo sapiens, UniProt Q92847).
Test [7] deals with Kappa-type opioid receptor (Homo sapiens, UniProt P41145).
Test [8] addresses T4, Type-1 angiotensin II receptor (Homo sapiens, UniProt P30556).
T4 sequence (P30556 whole entry): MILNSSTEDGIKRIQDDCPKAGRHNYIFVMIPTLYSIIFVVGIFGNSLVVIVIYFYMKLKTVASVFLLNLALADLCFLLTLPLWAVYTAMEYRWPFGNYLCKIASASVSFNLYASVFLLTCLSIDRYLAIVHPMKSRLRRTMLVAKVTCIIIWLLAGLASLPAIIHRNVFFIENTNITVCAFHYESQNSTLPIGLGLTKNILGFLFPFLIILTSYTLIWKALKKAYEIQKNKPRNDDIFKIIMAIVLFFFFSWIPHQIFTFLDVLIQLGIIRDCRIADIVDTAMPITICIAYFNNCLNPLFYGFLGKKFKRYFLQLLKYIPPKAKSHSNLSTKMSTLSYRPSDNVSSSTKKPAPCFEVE

Test [9] concerns the target T3, Gamma-aminobutyric acid receptor subunit alpha-1. Type of test: functional.
The target of test [10] is Sodium-dependent dopamine transporter (Homo sapiens, UniProt Q01959).
Test [11] has as its target Voltage-gated inwardly rectifying potassium channel KCNH2 (Homo sapiens, UniProt Q12809). In kind it is functional. Particulars: read-out: AC50.

A value given as a limit tells only on which side of the number the result lay.
Note: assay procedure not described here.

Beta-2 adrenergic receptor, sequence (P07550 whole entry): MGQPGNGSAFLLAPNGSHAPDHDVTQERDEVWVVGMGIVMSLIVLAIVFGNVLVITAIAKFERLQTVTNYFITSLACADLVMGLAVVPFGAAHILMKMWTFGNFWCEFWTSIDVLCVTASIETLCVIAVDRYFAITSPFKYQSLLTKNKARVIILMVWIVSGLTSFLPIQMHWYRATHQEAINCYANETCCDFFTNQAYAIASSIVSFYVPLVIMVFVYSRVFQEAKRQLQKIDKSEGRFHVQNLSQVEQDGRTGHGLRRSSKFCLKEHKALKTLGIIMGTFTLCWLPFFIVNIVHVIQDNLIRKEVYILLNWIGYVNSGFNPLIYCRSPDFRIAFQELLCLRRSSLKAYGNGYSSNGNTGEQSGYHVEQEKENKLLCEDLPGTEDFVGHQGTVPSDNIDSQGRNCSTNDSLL
Melanocortin receptor 4, sequence (P32245 whole entry): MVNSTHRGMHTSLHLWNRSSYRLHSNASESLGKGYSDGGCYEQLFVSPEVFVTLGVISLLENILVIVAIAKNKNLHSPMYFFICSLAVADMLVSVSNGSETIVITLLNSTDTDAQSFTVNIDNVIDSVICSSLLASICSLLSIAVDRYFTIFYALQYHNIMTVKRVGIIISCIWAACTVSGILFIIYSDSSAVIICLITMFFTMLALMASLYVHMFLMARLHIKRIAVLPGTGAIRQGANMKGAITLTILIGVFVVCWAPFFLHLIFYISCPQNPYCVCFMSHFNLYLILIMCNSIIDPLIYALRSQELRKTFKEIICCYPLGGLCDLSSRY
T3 sequence (P62813 whole entry): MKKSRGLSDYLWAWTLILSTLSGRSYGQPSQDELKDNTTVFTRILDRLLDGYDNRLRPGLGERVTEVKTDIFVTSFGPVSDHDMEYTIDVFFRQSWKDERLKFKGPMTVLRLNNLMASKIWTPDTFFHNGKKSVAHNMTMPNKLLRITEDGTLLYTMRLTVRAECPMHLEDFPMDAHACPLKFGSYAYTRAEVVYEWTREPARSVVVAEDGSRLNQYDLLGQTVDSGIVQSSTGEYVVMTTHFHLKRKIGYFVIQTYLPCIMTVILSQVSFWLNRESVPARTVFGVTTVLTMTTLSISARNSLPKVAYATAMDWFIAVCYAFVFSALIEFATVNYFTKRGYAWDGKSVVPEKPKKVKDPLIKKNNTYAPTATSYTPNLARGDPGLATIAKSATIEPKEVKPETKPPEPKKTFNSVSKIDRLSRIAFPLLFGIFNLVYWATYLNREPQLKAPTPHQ
Voltage-gated inwardly rectifying potassium channel KCNH2, sequence (Q12809 whole entry): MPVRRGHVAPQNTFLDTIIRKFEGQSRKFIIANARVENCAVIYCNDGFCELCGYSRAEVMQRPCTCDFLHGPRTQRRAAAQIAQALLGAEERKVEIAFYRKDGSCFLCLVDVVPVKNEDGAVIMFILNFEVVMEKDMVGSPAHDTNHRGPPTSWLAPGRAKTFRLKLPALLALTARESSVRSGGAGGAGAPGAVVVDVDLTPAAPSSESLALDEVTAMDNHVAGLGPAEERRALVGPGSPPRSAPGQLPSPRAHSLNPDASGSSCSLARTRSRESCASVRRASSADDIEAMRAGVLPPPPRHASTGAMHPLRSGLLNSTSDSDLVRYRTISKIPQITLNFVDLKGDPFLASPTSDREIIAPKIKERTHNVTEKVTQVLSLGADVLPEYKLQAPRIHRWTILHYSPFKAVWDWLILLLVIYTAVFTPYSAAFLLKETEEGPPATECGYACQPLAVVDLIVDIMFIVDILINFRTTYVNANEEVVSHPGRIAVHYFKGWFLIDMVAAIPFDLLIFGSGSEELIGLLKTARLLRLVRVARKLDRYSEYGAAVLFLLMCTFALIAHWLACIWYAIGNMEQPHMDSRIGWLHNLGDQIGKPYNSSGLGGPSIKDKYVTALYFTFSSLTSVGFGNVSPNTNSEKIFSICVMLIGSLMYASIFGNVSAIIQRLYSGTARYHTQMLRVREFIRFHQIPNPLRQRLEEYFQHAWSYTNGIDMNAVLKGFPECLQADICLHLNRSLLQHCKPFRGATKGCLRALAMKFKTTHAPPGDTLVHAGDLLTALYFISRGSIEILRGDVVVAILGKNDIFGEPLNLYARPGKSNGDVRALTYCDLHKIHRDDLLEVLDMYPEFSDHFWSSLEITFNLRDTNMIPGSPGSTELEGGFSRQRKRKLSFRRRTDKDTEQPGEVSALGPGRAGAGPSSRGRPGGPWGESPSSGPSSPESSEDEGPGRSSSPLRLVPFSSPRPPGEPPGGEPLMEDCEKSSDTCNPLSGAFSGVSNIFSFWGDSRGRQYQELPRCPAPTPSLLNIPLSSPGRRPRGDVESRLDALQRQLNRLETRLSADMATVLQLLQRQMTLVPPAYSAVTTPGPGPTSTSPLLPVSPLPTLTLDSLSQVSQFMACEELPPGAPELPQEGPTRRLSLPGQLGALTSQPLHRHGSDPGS
Sodium-dependent dopamine transporter, sequence (Q01959 whole entry): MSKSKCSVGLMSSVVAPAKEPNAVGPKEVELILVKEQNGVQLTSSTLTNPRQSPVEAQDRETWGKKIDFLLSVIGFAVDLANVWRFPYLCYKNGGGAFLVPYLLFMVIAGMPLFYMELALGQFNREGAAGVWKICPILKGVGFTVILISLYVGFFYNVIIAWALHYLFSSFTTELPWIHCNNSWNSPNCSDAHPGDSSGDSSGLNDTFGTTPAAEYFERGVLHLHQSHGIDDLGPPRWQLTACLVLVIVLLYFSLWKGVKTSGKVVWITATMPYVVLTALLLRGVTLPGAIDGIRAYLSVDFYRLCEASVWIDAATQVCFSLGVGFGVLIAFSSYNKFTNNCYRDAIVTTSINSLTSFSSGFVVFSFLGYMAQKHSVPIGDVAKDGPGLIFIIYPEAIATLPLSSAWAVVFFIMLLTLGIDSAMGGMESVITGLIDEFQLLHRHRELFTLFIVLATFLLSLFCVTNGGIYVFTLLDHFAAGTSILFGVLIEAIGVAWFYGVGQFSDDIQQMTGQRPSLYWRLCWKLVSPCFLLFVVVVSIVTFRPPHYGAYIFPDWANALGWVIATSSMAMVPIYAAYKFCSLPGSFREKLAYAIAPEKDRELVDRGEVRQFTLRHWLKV
D(3) dopamine receptor, sequence (P35462 whole entry): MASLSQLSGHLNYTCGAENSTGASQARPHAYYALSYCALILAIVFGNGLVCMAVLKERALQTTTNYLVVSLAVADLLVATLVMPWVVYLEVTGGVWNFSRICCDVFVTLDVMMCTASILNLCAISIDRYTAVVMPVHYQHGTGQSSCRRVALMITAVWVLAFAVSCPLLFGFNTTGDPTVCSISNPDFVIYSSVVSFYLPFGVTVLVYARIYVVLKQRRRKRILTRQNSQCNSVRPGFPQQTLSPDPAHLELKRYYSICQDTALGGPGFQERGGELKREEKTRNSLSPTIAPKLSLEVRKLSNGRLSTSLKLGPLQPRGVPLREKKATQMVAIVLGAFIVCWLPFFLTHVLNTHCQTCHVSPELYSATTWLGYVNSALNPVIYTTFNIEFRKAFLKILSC
Kappa-type opioid receptor, sequence (P41145 whole entry): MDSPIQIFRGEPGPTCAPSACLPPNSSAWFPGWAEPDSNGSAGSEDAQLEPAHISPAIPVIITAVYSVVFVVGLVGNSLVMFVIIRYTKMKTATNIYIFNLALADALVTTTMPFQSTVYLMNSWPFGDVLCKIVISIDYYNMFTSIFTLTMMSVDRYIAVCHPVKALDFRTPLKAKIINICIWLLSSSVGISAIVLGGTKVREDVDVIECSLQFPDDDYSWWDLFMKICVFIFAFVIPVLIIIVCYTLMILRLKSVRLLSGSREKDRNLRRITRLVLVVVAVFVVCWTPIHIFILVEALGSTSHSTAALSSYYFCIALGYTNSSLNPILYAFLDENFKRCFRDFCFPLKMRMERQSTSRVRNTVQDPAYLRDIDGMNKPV
D(1A) dopamine receptor, sequence (P21728 whole entry): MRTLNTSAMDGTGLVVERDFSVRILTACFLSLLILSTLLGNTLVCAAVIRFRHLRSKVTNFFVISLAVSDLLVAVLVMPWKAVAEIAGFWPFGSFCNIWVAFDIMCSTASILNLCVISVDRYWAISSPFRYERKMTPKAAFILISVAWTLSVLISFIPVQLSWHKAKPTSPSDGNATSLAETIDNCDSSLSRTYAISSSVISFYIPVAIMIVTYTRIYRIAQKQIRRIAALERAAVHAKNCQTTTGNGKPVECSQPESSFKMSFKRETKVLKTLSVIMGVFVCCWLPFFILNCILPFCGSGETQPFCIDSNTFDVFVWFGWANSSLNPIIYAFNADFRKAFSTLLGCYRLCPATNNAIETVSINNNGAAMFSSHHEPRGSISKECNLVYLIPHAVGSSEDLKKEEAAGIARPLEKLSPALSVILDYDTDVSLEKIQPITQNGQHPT
Vasopressin V1a receptor, sequence (P37288 whole entry): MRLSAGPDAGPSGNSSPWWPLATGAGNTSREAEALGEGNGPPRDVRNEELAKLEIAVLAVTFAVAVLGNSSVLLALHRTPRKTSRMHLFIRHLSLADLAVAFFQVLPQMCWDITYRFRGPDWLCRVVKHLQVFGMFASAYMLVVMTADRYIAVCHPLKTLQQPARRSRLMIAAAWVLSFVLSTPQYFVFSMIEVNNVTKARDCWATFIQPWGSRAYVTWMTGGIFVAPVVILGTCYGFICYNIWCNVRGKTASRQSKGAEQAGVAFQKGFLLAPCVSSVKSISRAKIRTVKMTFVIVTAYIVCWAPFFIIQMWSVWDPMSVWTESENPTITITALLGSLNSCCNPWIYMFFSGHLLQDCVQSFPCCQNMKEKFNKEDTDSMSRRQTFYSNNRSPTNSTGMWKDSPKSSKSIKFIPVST
Growth hormone secretagogue receptor type 1, sequence (Q92847 whole entry): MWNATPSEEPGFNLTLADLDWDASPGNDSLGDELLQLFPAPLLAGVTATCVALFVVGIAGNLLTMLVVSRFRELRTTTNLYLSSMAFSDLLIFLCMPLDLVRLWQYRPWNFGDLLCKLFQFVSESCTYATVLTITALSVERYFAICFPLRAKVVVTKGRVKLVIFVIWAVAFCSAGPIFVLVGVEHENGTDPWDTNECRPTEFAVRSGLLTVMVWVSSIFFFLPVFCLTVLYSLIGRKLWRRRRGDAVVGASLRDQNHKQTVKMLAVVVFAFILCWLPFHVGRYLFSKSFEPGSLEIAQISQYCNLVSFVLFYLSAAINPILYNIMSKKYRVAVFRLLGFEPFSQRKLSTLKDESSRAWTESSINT

For the compound `CC1=C(CC(=O)O)c2cc(F)ccc2/C1=C\c1ccc([S+](C)[O-])cc1` (stereo not given), the half-maximal activity concentration (AC50) is > 30 µM at Cannabinoid receptor 1; > 10 µM in [1]; > 10 µM in [2]; > 30 µM in test [3]; > 10 µM at D(1A) dopamine receptor; > 10 µM in [4]. Moreover, the AC50 in test [5] was > 10 µM; at Vasopressin V1a receptor, > 30 µM; in test [6], > 30 µM; on D(3) dopamine receptor, > 30 µM; in test [7], > 10 µM; in test [8], > 30 µM. The half-maximal activity concentration (AC50) in test [9] was > 10 µM; in test [10], > 30 µM; in test [11], > 30 µM; on Melanocortin receptor 4 it was > 30 µM.

In the case of `CCOC(=O)C1=C(C)NC(C)=C(C(=O)OC)C1c1cccc(Cl)c1Cl` (stereo not given) [FELODIPINE], the AC50 at Cannabinoid receptor 1 was > 30 µM; in test [1], 0.0204 µM; in test [2], > 10 µM; in test [3] it was > 10 µM; at D(1A) dopamine receptor, > 10 µM; in test [4] it was > 10 µM. Also, the AC50 in test [5] was > 10 µM; on Vasopressin V1a receptor, > 10 µM; in test [6] it was > 30 µM; in test [7] it was 8.88 µM; in [8], 55.3 µM; in test [9], > 10 µM. For the same compound, the values for the half-maximal activity concentration (AC50) (in [10]; in test [11]; at Melanocortin receptor 4) were 13.3 µM, > 30 µM and > 30 µM, respectively.

As to `CN1C2CCCC1CC(NC(=O)c1nn(C)c3ccccc13)C2` (stereo not given) [GRANISETRON], the AC50 at Cannabinoid receptor 1 was > 30 µM; in test [1], > 10 µM; in test [2] it was > 10 µM; at D(1A) dopamine receptor it was > 10 µM; in test [4], > 10 µM; in test [5], > 10 µM. Further, the concentration at half-maximal activity (AC50) at Vasopressin V1a receptor is > 10 µM; in test [6], > 30 µM; on D(3) dopamine receptor, > 10 µM; in [7], > 10 µM; in test [8] it was > 30 µM; in test [9], > 10 µM. Moreover, the AC50 in test [10] is > 10 µM; at Melanocortin receptor 4, > 30 µM.

For `N=C(N)NC(=O)Cc1c(Cl)cccc1Cl` [GUANFACINE], the AC50 on Cannabinoid receptor 1 was > 30 µM; in test [1], > 30 µM; in test [3] it was > 30 µM; at D(1A) dopamine receptor, > 30 µM; in test [4], > 10 µM; in test [5] it was > 30 µM. The half-maximal activity concentration (AC50) was > 30 µM on Vasopressin V1a receptor; > 30 µM in test [6]; 20 µM at D(3) dopamine receptor; 5.95 µM in [7]; > 30 µM in test [8]; > 30 µM in [9]. Further, the AC50 (in [10]; in [11]; at Melanocortin receptor 4) was > 30 µM each time.

On to `CC(=O)N1CCN(c2ccc(OCC3COC(Cn4ccnc4)(c4ccc(Cl)cc4Cl)O3)cc2)CC1` (stereo not given) [KETOCONAZOLE], for which the half-maximal activity concentration (AC50) was > 30 µM at Cannabinoid receptor 1; > 10 µM in test [1]; > 10 µM in test [2]; > 30 µM in test [3]; > 10 µM at D(1A) dopamine receptor; > 10 µM in [4]. Further, the concentration at half-maximal activity (AC50) in [5] was > 10 µM; at Vasopressin V1a receptor, > 10 µM; in [6], > 10 µM; at D(3) dopamine receptor, > 30 µM; in test [7] it was > 10 µM; in test [8] it was > 10 µM. In addition, the results for the half-maximal activity concentration (AC50) (in test [9]; in test [10]; at Melanocortin receptor 4) were > 10 µM, > 30 µM and > 10 µM, respectively.

With `CN1CCC(=C2c3ccccc3CC(=O)c3sccc32)CC1` [KETOTIFEN], the half-maximal activity concentration (AC50) was > 30 µM at Cannabinoid receptor 1; > 10 µM in test [1]; > 10 µM in [2]; > 10 µM on D(1A) dopamine receptor; > 10 µM in test [4]; > 10 µM in test [5]. For the same compound, the AC50 at Vasopressin V1a receptor is > 10 µM; in [6], > 10 µM; on D(3) dopamine receptor, 3 µM; in [7], 5.38 µM; in test [8] it was > 10 µM; in test [9], > 10 µM. Moreover, the half-maximal activity concentration (AC50) in test [10] was > 10 µM; in test [11], 1.5 µM; at Melanocortin receptor 4, > 10 µM.
